Measurements reported in PubChem BioAssay AID1745860.

Target: Sodium-dependent noradrenaline transporter (Homo sapiens) (UniProt P23975)
Assay: NET transport inhibition via TRACT readout – HEK293 JumpIn overexpressing cells, impedance, dose response (AID 1745860)
Conditions: HEK293 JumpIn SLC6A2 OE

Sodium-dependent noradrenaline transporter (Homo sapiens), sequence (P23975 whole entry, looked up): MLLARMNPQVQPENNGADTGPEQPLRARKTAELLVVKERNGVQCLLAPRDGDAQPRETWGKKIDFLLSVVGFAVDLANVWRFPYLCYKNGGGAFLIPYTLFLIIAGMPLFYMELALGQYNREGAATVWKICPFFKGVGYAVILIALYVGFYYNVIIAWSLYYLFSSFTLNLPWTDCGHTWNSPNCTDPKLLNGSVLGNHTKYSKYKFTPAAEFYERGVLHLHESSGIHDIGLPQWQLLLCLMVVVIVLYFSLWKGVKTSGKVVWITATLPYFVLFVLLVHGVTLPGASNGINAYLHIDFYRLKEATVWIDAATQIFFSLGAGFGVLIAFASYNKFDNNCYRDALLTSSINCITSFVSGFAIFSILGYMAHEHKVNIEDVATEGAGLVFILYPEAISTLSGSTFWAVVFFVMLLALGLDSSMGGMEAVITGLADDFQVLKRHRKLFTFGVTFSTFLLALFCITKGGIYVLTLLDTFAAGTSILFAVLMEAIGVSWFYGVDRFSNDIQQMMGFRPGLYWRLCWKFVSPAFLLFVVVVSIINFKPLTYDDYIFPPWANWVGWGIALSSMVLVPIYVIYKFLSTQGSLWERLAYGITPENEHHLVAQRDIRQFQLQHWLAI

IC50: 4 µM
SMILES: CNC[C@H](O)c1ccc(O)c(O)c1
